Reference: PMC3250956, “Functional characterization and analgesic effects of mixed cannabinoid receptor/T-type channel ligands” (Molecular Pain, 2011)
Like-named read-outs stand apart in the source and are kept apart here.

Tests used:
Cav3.2 = target: T1, Cav3.2 (Homo sapiens, UniProt O95180); assay: Whole-cell patch-clamp on Cav3.2: concentration-response and steady-state inactivation; format: cell-based; conditions: 10 μM; for half-inactivation potential after treatment with drug: n = 4
T1 construct: expressed in transfected cells; host or cells: tsA-201 cells, transient calcium phosphate transfection
T1 sequence (O95180 whole entry): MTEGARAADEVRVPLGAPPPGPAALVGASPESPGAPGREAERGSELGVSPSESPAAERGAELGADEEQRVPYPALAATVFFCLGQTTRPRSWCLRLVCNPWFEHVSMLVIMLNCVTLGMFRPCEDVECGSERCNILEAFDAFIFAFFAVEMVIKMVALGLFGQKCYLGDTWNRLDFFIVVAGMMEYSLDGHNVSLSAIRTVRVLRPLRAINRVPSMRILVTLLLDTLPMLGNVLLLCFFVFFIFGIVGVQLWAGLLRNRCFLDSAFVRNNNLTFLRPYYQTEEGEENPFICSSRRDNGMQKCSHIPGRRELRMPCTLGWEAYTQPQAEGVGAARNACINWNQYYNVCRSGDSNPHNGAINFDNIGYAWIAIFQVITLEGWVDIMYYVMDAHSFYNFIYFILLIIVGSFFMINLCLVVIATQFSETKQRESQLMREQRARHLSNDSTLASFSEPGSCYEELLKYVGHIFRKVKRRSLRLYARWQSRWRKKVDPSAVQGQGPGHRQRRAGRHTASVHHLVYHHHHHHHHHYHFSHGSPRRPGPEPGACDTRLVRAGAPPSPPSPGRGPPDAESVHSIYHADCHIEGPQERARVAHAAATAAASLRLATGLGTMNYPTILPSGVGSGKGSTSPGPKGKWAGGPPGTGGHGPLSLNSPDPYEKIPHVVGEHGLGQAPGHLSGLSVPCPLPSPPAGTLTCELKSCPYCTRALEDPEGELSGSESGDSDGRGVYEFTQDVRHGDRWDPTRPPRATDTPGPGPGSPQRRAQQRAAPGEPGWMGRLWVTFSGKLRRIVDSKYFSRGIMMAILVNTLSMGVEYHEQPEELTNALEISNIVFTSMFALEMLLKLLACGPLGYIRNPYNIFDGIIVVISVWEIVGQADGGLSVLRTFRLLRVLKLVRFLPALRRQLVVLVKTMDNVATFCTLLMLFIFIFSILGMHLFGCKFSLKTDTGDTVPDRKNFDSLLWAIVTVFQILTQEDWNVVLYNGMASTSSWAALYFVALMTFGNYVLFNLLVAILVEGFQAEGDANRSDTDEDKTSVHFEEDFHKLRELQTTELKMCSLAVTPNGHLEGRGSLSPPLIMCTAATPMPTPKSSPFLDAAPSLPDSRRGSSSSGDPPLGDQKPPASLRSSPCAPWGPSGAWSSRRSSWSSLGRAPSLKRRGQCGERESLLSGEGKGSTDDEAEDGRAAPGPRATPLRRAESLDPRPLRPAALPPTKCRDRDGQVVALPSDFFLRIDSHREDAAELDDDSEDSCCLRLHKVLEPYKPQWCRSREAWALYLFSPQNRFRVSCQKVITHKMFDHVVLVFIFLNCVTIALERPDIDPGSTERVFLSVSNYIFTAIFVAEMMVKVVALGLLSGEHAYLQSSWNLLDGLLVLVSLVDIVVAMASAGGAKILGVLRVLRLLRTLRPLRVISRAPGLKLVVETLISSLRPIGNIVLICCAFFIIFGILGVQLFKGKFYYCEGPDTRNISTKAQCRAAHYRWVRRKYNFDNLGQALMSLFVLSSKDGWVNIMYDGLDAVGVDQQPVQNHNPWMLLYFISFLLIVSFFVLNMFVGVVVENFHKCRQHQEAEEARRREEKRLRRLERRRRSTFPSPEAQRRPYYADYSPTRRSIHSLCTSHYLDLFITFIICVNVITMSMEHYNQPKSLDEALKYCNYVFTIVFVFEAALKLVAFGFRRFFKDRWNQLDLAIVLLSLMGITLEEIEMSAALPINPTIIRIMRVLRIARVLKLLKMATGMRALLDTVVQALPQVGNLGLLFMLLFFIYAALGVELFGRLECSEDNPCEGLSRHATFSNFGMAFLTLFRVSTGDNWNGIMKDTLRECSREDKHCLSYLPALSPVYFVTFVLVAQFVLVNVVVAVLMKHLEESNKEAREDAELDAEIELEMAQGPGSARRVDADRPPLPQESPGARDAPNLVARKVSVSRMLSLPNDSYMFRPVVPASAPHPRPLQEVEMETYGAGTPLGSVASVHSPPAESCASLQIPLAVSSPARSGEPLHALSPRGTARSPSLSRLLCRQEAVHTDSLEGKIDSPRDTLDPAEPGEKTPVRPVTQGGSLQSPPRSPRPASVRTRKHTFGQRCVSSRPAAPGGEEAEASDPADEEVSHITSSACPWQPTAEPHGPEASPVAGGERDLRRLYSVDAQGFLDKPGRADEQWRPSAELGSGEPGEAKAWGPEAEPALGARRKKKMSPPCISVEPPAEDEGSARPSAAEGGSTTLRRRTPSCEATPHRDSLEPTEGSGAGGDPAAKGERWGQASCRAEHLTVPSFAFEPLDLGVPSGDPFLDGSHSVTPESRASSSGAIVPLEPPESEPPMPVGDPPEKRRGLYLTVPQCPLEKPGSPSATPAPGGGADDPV
Method: To further characterize compounds NMP-4, NMP-7 and NMP-144, we investigated the concentration dependence of their action on Cav3.2, the major T-type calcium channel subtype implicated in the afferent pain pathway (Figure 2B, C).
To determine whether these compounds also affected inactivated channels, we recorded steady-state inactivation curves prior and after application of NMP-4, NMP-7 or NMP-144.
Whole-cell currents were recorded from tsa-201 cells 2-4 days after transfection. The external recording solution contained (in mM): BaCl2 (20), MgCl2 (1), HEPES (10), TEA-Cl (40), CsCl (65), d-glucose (10) and pH 7.2 adjusted with TEA-OH. The internal pipette solution was composed of (in mM) Cs-methanesulfonate (108), MgCl2 (4), EGTA (9), HEPES (9) and pH 7.2 adjusted with CsOH. The internal solution was supplemented with 0.6 mM GTP (sodium salt) and 2 mM ATP (tris salt), which were added directly to the internal solution immediately prior to use. Pipettes with a resistance of 2~5 MΩ when filled with internal solution were used for recording. Currents were elicited from a holding potential of -100 mV and were measured by conventional whole-cell patch clamp using an Axopatch 200B amplifier in combination with Clampex 9.2 software (Axon Instruments, Foster City, CA). Data were filtered at 1 kHz (8-pole Bessel) and digitized at 10 kHz with a Digidata 1320 (Axon Instruments, Foster City, CA). Series resistance were compensated by 85% in all experiments. An online P/4 programme was used to subtract the leak currents. Drugs were dissolved in DMSO at the following stock concentrations: 20 mM for NMP-4 and NMP-7, and 10 mM for NMP-139, NMP-140, NMP-141 and NMP-144. Prior to the experiment, drugs were diluted into external recording solution with a final DMSO concentration no higher than 0.3%. DMSO was also included in the control solution. Drug delivery was controlled by a Valvelink8.2 fast perfusion system (Automate Scientific Inc., Berkeley, CA). The perfusion tip was positioned a few hundred microns from the cell and kept as constant as possible throughout the experiments. Electrophysiological data were analyzed using Clampfit 9.2 (Axon Instruments, Foster City, CA) and GraphPad Prism 5 software (GraphPad Software Inc., San Diego, CA). […] Steady-state inactivation curves were fitted using the Boltzmann equation: I = 1/(1 + e ^(V-Vh)/k), where Vh is the half inactivating potential and k is the slope factor.

Rat CB1 = target: T2, Rat CB1 (Rattus norvegicus, UniProt P20272); assay: Radioligand competitive binding, [3H]CP55940, rat brain homogenate; conditions: for Rat CB1 (%) primary radioligand competitive binding: ligand 10 μM, rat brain homogenates
T2 construct: membrane fractions prepared from rat brain homogenate expressing CB1 receptor; from tissue; host or cells: rat brain homogenate
T2 sequence (P20272 whole entry): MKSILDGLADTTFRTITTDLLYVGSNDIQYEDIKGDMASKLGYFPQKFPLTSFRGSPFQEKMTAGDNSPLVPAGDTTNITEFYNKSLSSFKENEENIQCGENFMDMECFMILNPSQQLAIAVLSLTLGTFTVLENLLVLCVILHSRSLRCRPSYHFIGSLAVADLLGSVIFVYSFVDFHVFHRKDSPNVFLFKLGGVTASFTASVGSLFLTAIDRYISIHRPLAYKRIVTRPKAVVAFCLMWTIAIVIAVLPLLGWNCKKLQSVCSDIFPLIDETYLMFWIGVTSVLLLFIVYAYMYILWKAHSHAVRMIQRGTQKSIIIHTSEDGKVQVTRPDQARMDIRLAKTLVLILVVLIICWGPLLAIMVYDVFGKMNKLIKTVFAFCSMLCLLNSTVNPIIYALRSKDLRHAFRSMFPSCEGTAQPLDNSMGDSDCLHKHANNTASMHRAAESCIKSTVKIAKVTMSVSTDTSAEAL
Method: CB1 and CB2 radioligand binding data were obtained using National Institute of Mental Health (NIMH) Psychoactive Drug Screening Program (PDSP) resources as described earlier. Compounds were screened in a competitive binding experiment using, respectively, membrane fractions prepared from rat brain homogenate expressing CB1 receptor and HEK293 cells expressing the human CB2 receptor. Experiments were conducted at a range of different concentrations and in duplicate. The competition binding experiment for CB1 and CB2 was performed in 96 well plates containing Standard Binding Buffer (50 mM Tris HCl, 1 mM EDTA, 3 mM MgCl2, 5 mg/ml fatty acid-free BSA, pH 7.4). The radioligand was [^3H]CP55940, and the reference compound was CP55940. A solution of the compound to be tested was prepared as a 1 mg/ml stock in DMSO and then diluted in Standard Binding Buffer by serial dilution. Radioligand was diluted to five times the assay concentration in Standard Binding Buffer. Aliquots (50 μl) of radioligand were dispensed into the wells of a 96-well plate containing 100 μl of Standard Binding Buffer. Then, duplicate 50-μl aliquots of the test and reference compound dilutions were added. Finally, crude membrane fractions of cells were resuspended in 3 ml of chilled Standard Binding Buffer and homogenized by several passages through a 26 gauge needle, then 50 μl were dispensed into each well. The 250-μl reactions were incubated at room temperature for 1.5 hours, and then harvested by rapid filtration onto Whatman GF/B glass fiber filters pre-soaked with 0.3% polyethyleneimine using a 96-well Brandel harverster. Four rapid 500-μl washes were performed. Filters were placed in 6-ml scintillation tubes and allowed to dry overnight. Bound radioactivity was harvested onto 0.3% polyethyleneimine-treated, 96-well filter mats using a 96-well Filtermate harvester. The filter mats were dried, then scintillant was melted onto the filters and the radioactivity retained on the filters counted in a Microbeta scintillation counter. Raw data (dpm) representing total radioligand binding (i.e., specific + non-specific binding) were plotted as a function of the logarithm of the molar concentration of the competitor (i.e., test or reference compound). Non-linear regression of the normalized (i.e., percent radioligand binding compared to that observed in the absence of test or reference compound) raw data was performed in Prism 4.0 (GraphPad Software) using the built-in three parameter logistic model describing ligand competition binding to radioligand-labeled sites: y = bottom + [(top-bottom)/(1 + 10 × -logIC50)] where bottom equals the residual radioligand binding measured in the presence of 10 μM reference compound (i.e., non-specific binding) and top equals the total radioligand binding observed in the absence of competitor. The log IC50 (i.e., the log of the ligand concentration that reduces radioligand binding by 50%) is thus estimated from the data and used to obtain the Ki by applying the Cheng-Prusoff approximation: Ki = IC50/(1 + [ligand]/KD) where [ligand] equals the assay radioligand concentration and KD equals the affinity constant of the radioligand for the target receptor.

SMILES | hyperpolarizing shift in the half inactivation potential of Cav3.2 channels (Cav3.2) | half-inactivation potential after treatment with drug (Cav3.2) [mV] | Ki (Rat CB1; NA: not active at 1 μM, read-out: Mean Ki Rat CB1) [nM] | Rat CB1 (%) primary radioligand competitive binding (Rat CB1) [%] | Ki (Rat CB1) [nM]
CCCCCn1c2ccc(C(=O)N3CCCCC3)cc2c2ccc(OC)cc21 [NMP-4] | 20 mV | -72.9 ± 4.7 | 12.8 ± 1.8 | 99.3 | 
CCCCCn1c2c(c3ccc(OC)cc31)CN(C(=O)c1ccccc1)CC2 [NMP-144] | did not significantly affect voltage-dependent inactivation | -55.8 ± 2.2 |  | 67.4 | 1140 ± 264
